Data: US20080293785A1, “SUBSTITUTED BENZOTHIAZOLE KINASE INHIBITORS” (priority 2006, published 2008)

Assays:
Assay type in all cases: biochemical
[1] = target: T1, CDK1:Cyclin-B (Homo sapiens, UniProt P06493); experiment: CDK1 Screening Assay; details: 10 μM ATP, biotinylated histone-H1 peptide substrate, 33P-γ-ATP FlashPlate; read-out: Kinase IC50 CDK1
T1 construct: purchased New England Biolabs, Beverly, Mass; 6020; host or cells: insect cells
Procedure: (§1) A kinase reaction mixture was prepared containing 50 mM Tris.HCl pH=8, 10 mM MgCl2, 0.1 mM Na3PO4, 1 mM DTT, 10 μM ATP, 0.025 μM biotinylated histone-H1 peptide substrate and 0.2 μCuries per well ^33P-γ-ATP (2000-3000 Ci/mmol). 70 μL of the kinase reaction mixture was dispensed into the well of a streptavidin coated FlashPlate™ (Cat. # SMP103, NEN, Boston, Mass.). Then 1 μL of test compound stock in 100% DMSO was added to the wells resulting in a final concentration of 1% DMSO in the reaction well with a 100 μL final reaction well volume.
(§2) The CDK1:Cyclin-B protein was diluted in 50 mM Tris.HCl pH=8.0, 0.1% BSA at a concentration of 1 ng per μL and 30 μL (30 ng enzyme per test well) was added to each well to initiate the reaction. The reaction was incubated for one hour at 30° C. At the end of the one hour incubation, the reaction was terminated by aspirating the mixture from the plate and washing the wells twice with PBS containing 100 mM EDTA. The histone-H1 biotinylated peptide substrate became immobilized on the Flashplate™ and the incorporation of ^33P-γ-ATP was measured by reading the plate on a scintillation counter. Inhibition of the enzymatic activity of CDK1 was measured by observing a reduced amount of ^33P-γ-ATP incorporated into the immobilized peptide.
The CDK1 kinase used was isolated from insect cells expressing both the human CDK1 catalytic subunit and its positive regulatory subunit cyclin B (New England Biolabs, Beverly, Mass., Cat. # 6020).
(§3) An IC50 listed as >0.1, >1, >10 or >100 means no observed 50% inhibition at the indicated test concentration. […] ND means the compound was not tested in the assay specified.

[2] = target: T2, CDK2:Cyclin A (Homo sapiens, UniProt P24941); experiment: CDK2 Screening Assay; details: 10 μM ATP, biotinylated histone-H1 peptide substrate, 33P-γ-ATP FlashPlate; read-out: Kinase IC50 CDK2
T2 construct: purchased Upstate Biotech, Lake Placid, N.Y
Procedure: as §1
as §2, with “CDK2:Cyclin A” for “CDK1:Cyclin-B”, “CDK2” for “CDK1”
The CDK2 kinase used was complexed with cyclin A and is commercially available (Upstate Biotech, Lake Placid, N.Y.).
as §3

[3] = target: VEGF-R2 kinase domain (Rattus norvegicus, UniProt O08775); experiment: VEGF-R2 Screening Assay; details: 10 μM ATP, biotinylated PLC1 peptide substrate, 33P-γ-ATP FlashPlate; read-out: Kinase IC50 VEGFR
VEGF-R2 kinase domain, sequence (O08775 786-1343): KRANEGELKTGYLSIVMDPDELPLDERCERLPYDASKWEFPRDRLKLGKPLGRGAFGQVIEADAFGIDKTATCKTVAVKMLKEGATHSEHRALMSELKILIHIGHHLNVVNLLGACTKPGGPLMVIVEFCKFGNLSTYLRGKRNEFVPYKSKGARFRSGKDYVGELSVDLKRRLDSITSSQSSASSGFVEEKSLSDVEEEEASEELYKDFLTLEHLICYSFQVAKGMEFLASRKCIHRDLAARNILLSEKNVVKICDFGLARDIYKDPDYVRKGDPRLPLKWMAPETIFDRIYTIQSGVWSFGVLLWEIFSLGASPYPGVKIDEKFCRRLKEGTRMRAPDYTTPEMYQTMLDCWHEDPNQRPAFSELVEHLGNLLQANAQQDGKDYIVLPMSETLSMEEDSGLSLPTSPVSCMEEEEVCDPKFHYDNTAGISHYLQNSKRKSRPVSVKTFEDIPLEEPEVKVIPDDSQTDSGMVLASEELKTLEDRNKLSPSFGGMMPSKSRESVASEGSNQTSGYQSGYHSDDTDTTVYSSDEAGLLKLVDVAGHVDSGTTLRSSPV
Procedure: as §1, with “biotinylated” for “biotinylated histone-H1”, “0.8” for “0.2”
The soluble rat tyrosine kinase containing an N-terminal 6×HIS tag was diluted in 50 mM Tris.HCl pH=8.0, 0.1% BSA at a concentration of 5 ng per μL and 30 μL (150 ng enzyme per test well) was added to each well to initiate the reaction. The reaction was incubated for one hour at 30° C. At the end of the one hour incubation, the reaction was terminated by aspirating the reaction mixture from the plate and washing the wells twice with PBS containing 100 mM EDTA. The PLC1 biotinylated peptide substrate became immobilized on the Flashplate™ and the incorporation of ^33P-γ-ATP was measured by reading the plate on a scintillation counter. Inhibition of the enzymatic activity of the VEGF-R was measured by observing a reduced amount of ^33P-γ-ATP incorporated into the immobilized peptide.
The VEGF-R kinase assay was carried out using the CDK kinase assay procedure except that the enzyme was replaced with the VEGF-R2 fusion protein containing a polyhistidine tag at the N-terminus followed by amino acids 786-1343 of the rat VEGF-R2 kinase domain (GenBank Accession #U93306).
as §3

T1 sequence (P06493 whole entry): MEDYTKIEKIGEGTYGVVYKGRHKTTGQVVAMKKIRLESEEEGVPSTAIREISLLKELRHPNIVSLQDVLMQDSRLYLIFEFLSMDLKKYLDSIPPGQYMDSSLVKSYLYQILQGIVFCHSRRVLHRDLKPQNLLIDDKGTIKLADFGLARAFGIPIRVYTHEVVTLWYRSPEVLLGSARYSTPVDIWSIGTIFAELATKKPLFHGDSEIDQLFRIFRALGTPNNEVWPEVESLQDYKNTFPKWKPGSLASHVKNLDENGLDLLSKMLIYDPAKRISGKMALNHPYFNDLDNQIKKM
T1 sequence (P14635 whole entry partner): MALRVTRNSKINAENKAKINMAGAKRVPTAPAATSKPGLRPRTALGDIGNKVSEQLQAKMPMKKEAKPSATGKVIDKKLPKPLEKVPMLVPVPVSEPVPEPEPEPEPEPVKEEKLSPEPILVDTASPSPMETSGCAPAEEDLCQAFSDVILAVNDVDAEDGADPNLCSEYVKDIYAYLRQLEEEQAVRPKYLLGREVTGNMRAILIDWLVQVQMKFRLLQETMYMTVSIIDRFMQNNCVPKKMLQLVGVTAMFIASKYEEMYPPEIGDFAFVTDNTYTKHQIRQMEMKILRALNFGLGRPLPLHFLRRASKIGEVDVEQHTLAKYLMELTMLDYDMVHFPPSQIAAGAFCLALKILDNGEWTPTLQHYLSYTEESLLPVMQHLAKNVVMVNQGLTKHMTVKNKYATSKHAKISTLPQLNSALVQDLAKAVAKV

Row | SMILES | IC50 [1] [µM] | IC50 [2] [µM] | IC50 [3] [µM]
1 | O=C(Nc1ccccc1F)Nc1cccc2sc(Nc3ccccc3)nc12 [Cpd 7, 1-(2-fluoro-phenyl)-3-(2-phenylamino-benzothiazol-4-yl)-urea] | > 100 | 17.4 | > 100
2 | O=C(Nc1c(Cl)cccc1Cl)Nc1cccc2sc(Nc3ccccc3)nc12 [Cpd 8, 1-(2,6-dichloro-phenyl)-3-(2-phenylamino-benzothiazol-4-yl)-urea] | 17.5 | 3.74 | > 100
3 | O=C(Nc1cccc2sc(Nc3ccccc3)nc12)c1ccccc1 [Cpd 9, N-(2-phenylamino-benzothiazol-4-yl)-benzamide] | > 100 | 17.5 | > 100
4 | O=C(Nc1cccc2sc(Nc3ccccc3)nc12)c1c(F)cccc1F [Cpd 10, 2,6-difluoro-N-(2-phenylamino-benzothiazol-4-yl)-benzamide] | 3.64 | 0.65 | 5.96
5 | COc1ccc(Nc2nc3c(NC(=O)c4c(F)ccc(C)c4F)cccc3s2)cc1 [Cpd 11, 2,6-difluoro-N-[2-(4-methoxy-phenylamino)-benzothiazol-4-yl]-3-methyl-benzamide] | > 100 | > 10 | > 100
6 | Cc1ccc(F)c(C(=O)Nc2cccc3sc(Nc4ccc(S(N)(=O)=O)cc4)nc23)c1F [Cpd 12, 2,6-difluoro-3-methyl-N-[2-(4-sulfamoyl-phenylamino)-benzothiazol-4-yl]-benzamide] | > 100 | > 100 | > 100
7 | Cc1ccc(Nc2nc3c(NC(=O)c4c(F)ccc(C)c4F)cccc3s2)cc1 [Cpd 14, 2,6-difluoro-3-methyl-N-(2-p-tolylamino-benzothiazol-4-yl)-benzamide] | > 100 | 3.09 | > 100
8 | O=C(Nc1cccc2sc(Nc3ccccc3)nc12)c1ccncn1 [Cpd 15, pyrimidine-4-carboxylic acid (2-phenylamino-benzothiazol-4-yl)-amide] | > 100 | 89.1 | > 100
9 | NS(=O)(=O)c1ccc(C(=O)Nc2cccc3sc(Nc4ccccc4)nc23)cc1 [Cpd 17, N-(2-phenylamino-benzothiazol-4-yl)-4-sulfamoyl-benzamide] | > 100 | 3.05 | > 100
10 | O=C(Nc1cccc2sc(Nc3ccccc3)nc12)c1cccc([N+](=O)[O-])c1 [Cpd 19, 3-nitro-N-(2-phenylamino-benzothiazol-4-yl)-benzamide] | > 100 | 10.8 | > 100
11 | Nc1cccc(C(=O)Nc2cccc3sc(Nc4ccccc4)nc23)c1 [Cpd 20, 3-amino-N-(2-phenylamino-benzothiazol-4-yl)-benzamide] | > 100 | 5.28 | > 100
12 | O=C(Cc1cc(F)cc(F)c1)Nc1cccc2sc(Nc3ccccc3)nc12 [Cpd 23, 2-(3,5-difluoro-phenyl)-N-(2-phenylamino-benzothiazol-4-yl)-acetamide] | > 10 | 2.12 | > 100
13 | O=C(Nc1cccc2sc(Nc3ccccc3)nc12)c1cncc(Br)c1 [Cpd 24, 5-bromo-N-(2-phenylamino-benzothiazol-4-yl)-nicotinamide] | 53.3 | 8.28 | > 100
14 | O=C(Nc1cccc2sc(Nc3ccccc3)nc12)c1ccc2c(c1)OCO2 [Cpd 29, benzo[1,3]dioxole-5-carboxylic acid (2-phenylamino-benzothiazol-4-yl)-amide] | > 100 | 11.6 | > 100
15 | O=S(=O)(Nc1cccc2sc(Nc3ccccc3)nc12)c1ccccc1 [Cpd 30, N-(2-phenylamino-benzothiazol-4-yl)-benzenesulfonamide] | 11.3 | 1.94 | > 100
16 | O=C(Nc1cccc2sc(Nc3ccccc3)nc12)c1cc(C(F)(F)F)cc(C(F)(F)F)c1 [Cpd 31, N-(2-phenylamino-benzothiazol-4-yl)-3,5-bis-trifluoromethyl-benzamide] | 55.3 | 3.03 | > 100
17 | O=C(Nc1cccc2sc(Nc3ccccc3)nc12)c1ccccc1Br [Cpd 32, 2-bromo-N-(2-phenylamino-benzothiazol-4-yl)-benzamide] | > 100 | 6.27 | > 100
18 | O=C(Nc1cccc2sc(Nc3ccccc3)nc12)c1cccc(Br)c1 [Cpd 33, 3-bromo-N-(2-phenylamino-benzothiazol-4-yl)-benzamide] | > 100 | > 100 | > 100

More lines, now with the values ahead:

Row | IC50 [1] [µM] | IC50 [2] [µM] | IC50 [3] [µM] | SMILES
19 | > 10 | 3.34 | > 100 | Cc1cc(C(=O)Nc2cccc3sc(Nc4ccccc4)nc23)n(C)n1 [Cpd 13, 2,5-dimethyl-2H-pyrazole-3-carboxylic acid (2-phenylamino-benzothiazol-4-yl)-amide]
20 | > 100 | > 10 | > 100 | CC(=O)Nc1cccc2sc(Nc3ccccc3)nc12 [Cpd 16, N-(2-phenylamino-benzothiazol-4-yl)-acetamide]
21 | > 100 | 7.51 | > 100 | O=C(Nc1cccc2sc(Nc3ccccc3)nc12)c1ccno1 [Cpd 18, isoxazole-5-carboxylic acid (2-phenylamino-benzothiazol-4-yl)-amide]
22 | 14.8 | 1.54 | > 100 | O=C(Nc1cccc2sc(Nc3ccccc3)nc12)c1ccc(N2CCOCC2)nc1 [Cpd 21, 6-morpholin-4-yl-N-(2-phenylamino-benzothiazol-4-yl)-nicotinamide]
23 | 1.31 | 0.22 | > 100 | O=C(Cn1cnnn1)Nc1cccc2sc(Nc3ccccc3)nc12 [Cpd 22, N-(2-phenylamino-benzothiazol-4-yl)-2-tetrazol-1-yl-acetamide]
24 | 36.4 | 6.22 | > 100 | CC(=O)N1CCC(C(=O)Nc2cccc3sc(Nc4ccccc4)nc23)CC1 [Cpd 25, 1-acetyl-piperidine-4-carboxylic acid (2-phenylamino-benzothiazol-4-yl)-amide]
25 | > 100 | 3.67 | > 100 | CCC(=O)Nc1cccc2sc(Nc3ccccc3)nc12 [Cpd 26, N-(2-phenylamino-benzothiazol-4-yl)-propionamide]
26 | > 100 | 12 | > 100 | O=C(Nc1cccc2sc(Nc3ccccc3)nc12)c1ccccn1 [Cpd 27, pyridine-2-carboxylic acid (2-phenylamino-benzothiazol-4-yl)-amide]
27 | 12.3 | 1.65 | > 100 | O=C(Nc1cccc2sc(Nc3ccccc3)nc12)c1ccncc1 [Cpd 28, N-(2-phenylamino-benzothiazol-4-yl)-isonicotinamide]
